Assay results published in the NIST ThermoML archive (doi:10.1016/j.fluid.2006.02.022).
Values joined by “and” are separate entries in the source; they are usually repeats but may differ in a detail not shown here. Equal values may be shown once. Numbers after ± are expanded uncertainties.

Assay: activity coefficient (dimensionless); of the first substance listed, at infinite dilution; xn = mol fraction of the nth substance listed
Conditions: 101 kPa, Liquid, Chromatography, x1 = 0

In the case of `COC(C)(C)C` [2-methoxy-2-methylpropane] + O, the activity coefficient (288.15 K) is reported as 127 ± 13, the activity coefficient (298.15 K) is reported as 139 ± 11 and the activity coefficient (308.15 K) is reported as 180 ± 14. The activity coefficient (318.15 K) was 234 ± 18.
In the case of `c1ccsc1` [thiophene] + O, the activity coefficient (288.15 K) is reported as 1260 ± 100, the activity coefficient (298.15 K) is reported as 1270 ± 96 and the activity coefficient (308.15 K) is reported as 1310 ± 100. It also gave an activity coefficient (318.15 K) of 1290 ± 110 and an activity coefficient (333.15 K) of 1100 ± 100.
In the case of `COC(C)(C)CC(C)(C)C` [methyl 1,1,3,3-tetramethylbutyl ether] + O, the activity coefficient (318.15 K) is reported as 47100 and 126000 and the activity coefficient (333.15 K) is reported as 35500 and 76900.
Work on `CCC(C)(C)OC` [2-methoxy-2-methylbutane] + O yielded an activity coefficient (288.15 K) of 390 ± 39, an activity coefficient (298.15 K) of 529 ± 44 and an activity coefficient (308.15 K) of 725 ± 55. For the same molecule, the activity coefficient (318.15 K) was 1070 ± 87.
In the case of `CCOC(C)(C)C` [2-ethoxy-2-methylpropane] + O, the activity coefficient (288.15 K) is reported as 325 ± 22, the activity coefficient (298.15 K) is reported as 514 ± 35 and the activity coefficient (308.15 K) is reported as 659 ± 46. The activity coefficient (318.15 K) was 873 ± 82.
Molecule `CCCCS` [1-butanethiol] + O has an activity coefficient (288.15 K) of 6030 ± 490, an activity coefficient (298.15 K) of 6040 ± 530 and an activity coefficient (308.15 K) of 5830 ± 570. For the same molecule, the activity coefficient (318.15 K) was 5340 ± 620 and the activity coefficient (333.15 K) was 4140 ± 620.
Work on `CC(C)S` [2-propanethiol] + O yielded an activity coefficient (288.15 K) of 1120 ± 90, an activity coefficient (298.15 K) of 1140 ± 100 and an activity coefficient (308.15 K) of 1190 ± 120. The activity coefficient (318.15 K) was 1130 ± 130.
In the case of `CCOC(C)(C)CC(C)(C)C` [ethyl 1,1,3,3-tetramethylbutyl ether] + O, the activity coefficient (288.15 K) is reported as 111000 ± 9700, the activity coefficient (298.15 K) is reported as 143000 ± 16000 and the activity coefficient (308.15 K) is reported as 149000 ± 23000. It also gave an activity coefficient (318.15 K) of 126000 ± 27000 and an activity coefficient (333.15 K) of 76900 ± 29000.
For `CCOC(C)(C)CC` [1,1-dimethylpropyl ethyl ether] + O, the activity coefficient (288.15 K) was 1350 ± 100, the activity coefficient (298.15 K) was 1990 ± 140 and the activity coefficient (308.15 K) was 2530 ± 190. For the same molecule, the activity coefficient (318.15 K) was 3320 ± 350.
With `CCCS` [1-propanethiol] + O the activity coefficient (288.15 K) was 1420 ± 110, the activity coefficient (298.15 K) was 1500 ± 120 and the activity coefficient (308.15 K) was 1460 ± 130. The activity coefficient (318.15 K) was 1450 ± 150 and the activity coefficient (333.15 K) was 1310 ± 160.
Work on `Cc1ccccc1` [toluene] + O yielded an activity coefficient (288.15 K) of 8980 ± 950, an activity coefficient (298.15 K) of 8950 ± 950 and an activity coefficient (308.15 K) of 8780 ± 930. For the same molecule, the activity coefficient (318.15 K) was 8290 ± 880.
